Reference: patent publication US8354403B2, “Pyrrolidine derived beta 3 adrenergic receptor agonists” (Merck Sharp & Dohme Corp., priority 2009, dated 2013)
pEC50: −log10 of the molar value. Read-outs that look alike come from different tables or passages of the source. Values belong to the molecule of their own block, whether it stands above or below them.

Biological target: T1, human β3 adrenergic receptor (Homo sapiens, UniProt P13945)
T1 construct: expressed in transfected cells; host or cells: Chinese hamster ovary (CHO) cells, stably transfected
T1 sequence (P13945 whole entry): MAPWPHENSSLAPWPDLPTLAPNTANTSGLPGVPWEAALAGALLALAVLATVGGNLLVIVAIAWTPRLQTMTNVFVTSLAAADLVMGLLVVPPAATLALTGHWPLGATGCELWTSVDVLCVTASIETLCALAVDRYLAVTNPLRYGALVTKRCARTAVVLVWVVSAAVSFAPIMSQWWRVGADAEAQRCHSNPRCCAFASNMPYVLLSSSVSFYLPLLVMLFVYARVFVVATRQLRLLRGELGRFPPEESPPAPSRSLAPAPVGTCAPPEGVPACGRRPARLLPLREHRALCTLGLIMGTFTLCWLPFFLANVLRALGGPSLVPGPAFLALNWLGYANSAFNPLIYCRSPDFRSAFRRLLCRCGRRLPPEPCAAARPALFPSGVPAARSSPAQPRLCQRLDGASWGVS
Assay: Beta-3 agonist in vitro functional assay: cAMP production (LANCE TR-FRET) in CHO cells stably transfected with the cloned β3 receptor
Assay type: cell-based
Details: read-out: Human β3 agonist functional activity
Description: Chinese hamster ovary (CHO) cells, stably transfected with the cloned β-adrenergic receptor (β1, β2 or β3) are harvested after 3 days of subculturing. Harvesting of cells is done with Enzyme-free Dissociation Media (Specialty Media). Cells are then counted and resuspended in assay buffer (Hank's Balanced salt solution supplemented with 5 mM HEPES, […]) containing a phosphodiesterase inhibitor (IBMX, 0.6 mM). The reaction is initiated by mixing 6,000 cells in 6 μL with 6 μL Alexa Fluor labeled cAMP antibody (LANCE™ kit) which is then added to an assay well containing 12 μL of compound (diluted in assay buffer to 2× final concentration). The reaction proceeds for 30 minutes at RT and is terminated by the addition of 24 ul detection buffer (LANCE™ kit). The assay plate is then incubated for 1 h at RT and time-resolved fluorescence measured on a Perkin Elmer Envision reader or equivalent. The unknown cAMP level is determined by comparing fluorescence levels to a cAMP standard curve.
The non-selective, full agonist β-adrenergic ligand isoproterenol is used at all three receptors to determine maximal stimulation. […] Data are analyzed using Microsoft Excel and Graphpad Prism or an internally developed data analysis software package.

[1] = Table 9, Beta-3 agonist in vitro functional assay
[2] = Table 10, Beta-3 agonist in vitro functional assay
[3] = Table 8, Beta-3 agonist in vitro functional assay
[4] = Table 12, human β3 functional activity given as ranges
[5] = Table 7, cAMP, CHO cells, ranges as given for Tables 6 and 7

- pEC50 [1]: 6.00 to 7.00
Compound: COC(=O)c1csc(N2CCN(C(=O)c3ccc(C[C@@H]4CC[C@H]([C@H](O)c5ccccc5)N4)cc3)CC2)n1 [Example 381]

- pEC50 [2]: 7.00 to 8.00
Compound: CC(C(=O)NC1CCOC1)N1CCN(C(=O)c2ccc(C[C@@H]3CC[C@H]([C@H](O)c4ccccc4)N3)cc2)CC1 (some centres unmarked) [Example 457]

- pEC50 [2]: 6.00 to 7.00
Compound: CC(C(=O)N(C)CCO)N1CCN(C(=O)c2ccc(C[C@@H]3CC[C@H]([C@H](O)c4ccccc4)N3)cc2)CC1 (some centres unmarked) [Example 519]

- pEC50 [3]: 6.00 to 7.00
Compound: O=C(c1ccc(C[C@@H]2CC[C@H]([C@H](O)c3ccccc3)N2)cc1)N1CCC2(CCCC2n2cccn2)CC1 (some centres unmarked) [Example 282]

- pEC50 [3]: 7.00 to 8.00
Compound: O=C(c1ccc(C[C@@H]2CC[C@H]([C@H](O)c3cccnc3)N2)cc1)N1CCC2(CCOC2=O)CC1 [Example 292]

- pEC50 (Table 5, cAMP, CHO cells): 7.00 to 8.00
Compound: O=C(c1ccc(C[C@@H]2CC[C@H]([C@H](O)c3ccccc3)N2)cc1)N1CCC(C(O)c2ccccn2)CC1 (some centres unmarked) [Example 168]

- pEC50 [3]: 7.00 to 8.00
Compound: CC1CC2(CCN(C(=O)c3ccc(C[C@@H]4CC[C@H]([C@H](O)c5ccccc5)N4)cc3)CC2)OC1=O (some centres unmarked) [Example 274]

- pEC50 [4]: 7.00 to 8.00
Compound: CC(c1ccccc1F)N1CCN(C(=O)c2ccc(CC3CCC(C(O)c4ccccc4)N3)cc2)CC1 (single isomer, unassigned) [Example 574]

- pEC50 (Table 5, cAMP, CHO cells): 7.00 to 8.00
Compound: CC(c1ccccn1)C1CCN(C(=O)c2ccc(C[C@@H]3CC[C@H]([C@H](O)c4ccccc4)N3)cc2)CC1 (some centres unmarked) [Example 164]

- pEC50 [5]: 6.00 to 7.00
Compound: O=C(c1ccc(CC2CCC(C(O)c3ccccc3)N2)cc1)N1CC2C(C1)C2Cn1nccn1 (centres unmarked) [Example 232]

- pEC50 [3]: 7.00 to 8.00
Compound: O=C(c1ccc(C[C@@H]2CC[C@H]([C@H](O)c3ccccc3)N2)cc1)N1CCC2(CC1)OC(C1CC1)c1ccccc12 (some centres unmarked) [Example 308]

- pEC50 (Table 5, cAMP, CHO cells): 6.00 to 7.00
Compound: O=C(O)c1cc(OC2CCN(C(=O)c3ccc(C[C@@H]4CC[C@H]([C@H](O)c5ccccc5)N4)cc3)CC2)no1 [Example 160]

- pEC50 [1]: 6.00 to 7.00
Compound: O=C(c1ccc(C[C@@H]2CC[C@H]([C@H](O)c3ccccc3)N2)cc1)N1CCN(C(=O)c2ccco2)CC1 [Example 349]

- pEC50 [2]: 7.00 to 8.00
Compound: CC(C(=O)N1CCCCC1)N1CCN(C(=O)c2ccc(C[C@@H]3CC[C@H]([C@H](O)c4ccccc4)N3)cc2)CC1 (some centres unmarked) [Example 484]

- pEC50 (Table 4, cAMP, CHO cells): 7.00 to 8.00
Compound: O=C(c1ccc(C[C@@H]2CC[C@H]([C@H](O)c3ccccc3)N2)cc1)N1CCC2c3cccnc3OC2C1 (some centres unmarked) [Example 58]

- pEC50 [2]: 6.00 to 7.00
Compound: CC(C(=O)NC1CCOCC1)N1CCN(C(=O)c2ccc(C[C@@H]3CC[C@H]([C@H](O)c4ccccc4)N3)cc2)CC1 (some centres unmarked) [Example 468]

- pEC50 [1]: 7.00 to 8.00
Compound: Cn1ncnc1CN1CCN(C(=O)c2ccc(C[C@@H]3CC[C@H]([C@H](O)c4ccccc4)N3)cc2)CC1 [Example 397]

- pEC50 [4]: 8.00 to 9.00
Compound: CC(C)(C)C1CC2(CCN(C(=O)c3ccc(CC4CCC(C(O)c5ccccc5)N4)cc3)CC2)C(=O)O1 (single isomer, unassigned) [Example 570]

- pEC50 (Table 5, cAMP, CHO cells): 7.00 to 8.00
Compound: O=C(c1ccc(C[C@@H]2CC[C@H]([C@H](O)c3ccccc3)N2)cc1)N1CCC(n2cncn2)CC1 [Example 92]

- pEC50 (Table 11, cAMP, CHO cells): 7.00 to 8.00
Compound: O=C(c1ccc(C[C@@H]2CC[C@H]([C@H](O)c3ccccc3)N2)cc1)N1CCCN(Cc2ccccn2)CC1 [Example 551]

- pEC50 [3]: 7.00 to 8.00
Compound: Cc1ccc(CC2(O)CCN(C(=O)c3ccc(C[C@@H]4CC[C@H]([C@H](O)c5ccccc5)N4)cc3)CC2)cc1 [Example 246]

- pEC50 [2]: 7.00 to 8.00
Compound: Cc1c(CNC(=O)C(C)N2CCN(C(=O)c3ccc(C[C@@H]4CC[C@H]([C@H](O)c5ccccc5)N4)cc3)CC2)cnn1C (some centres unmarked) [Example 464]

- pEC50 [3]: 8.00 to 9.00
Compound: O=C(c1ccc(C[C@@H]2CC[C@H]([C@H](O)c3ccccc3)N2)cc1)N1CCC2(C=Cc3ccccc3S2(=O)=O)CC1 [Example 337]

- pEC50 [3]: 6.00 to 7.00
Compound: CC1(C)CC2(CCN(C(=O)c3ccc(C[C@@H]4CC[C@H]([C@H](O)c5ccccc5)N4)cc3)CC2)CO1 [Example 312]

- pEC50 [1]: 7.00 to 8.00
Compound: O=C(c1ccc(C[C@@H]2CC[C@H]([C@H](O)c3ccccc3)N2)cc1)N1CCN(c2nccs2)CC1 [Example 378]

- pEC50 [3]: 7.00 to 8.00
Compound: O=C1OC2(CCN(C(=O)c3ccc(C[C@@H]4CC[C@H]([C@H](O)c5ccccc5)N4)cc3)CC2)c2ncccc21 [Example 287]

- pEC50 [2]: 8.00 to 9.00
Compound: CC(C(=O)N1CC[C@H](F)C1)N1CCN(C(=O)c2ccc(C[C@@H]3CC[C@H]([C@H](O)c4ccccc4)N3)cc2)CC1 (some centres unmarked) [Example 475]

- pEC50 [3]: 6.00 to 7.00
Compound: CON=C1CCCC12CCN(C(=O)c1ccc(CC3CCC(C(O)c4ccccc4)N3)cc1)CC2 (centres unmarked) [Example 318]

- pEC50 [2]: 8.00 to 9.00
Compound: CC(C(=O)NCC1CCC1)N1CCN(C(=O)c2ccc(C[C@@H]3CC[C@H]([C@H](O)c4ccccc4)N3)cc2)CC1 (some centres unmarked) [Example 452]

- pEC50 [3]: 7.00 to 8.00
Compound: COC(=O)C1CC2(CCN(C(=O)c3ccc(C[C@@H]4CC[C@H]([C@H](O)c5ccccc5)N4)cc3)CC2)c2ccccc21 (some centres unmarked) [Example 320]

- pEC50 [2]: 7.00 to 8.00
Compound: CC(C(=O)N1CCc2oncc2C1)N1CCN(C(=O)c2ccc(C[C@@H]3CC[C@H]([C@H](O)c4ccccc4)N3)cc2)CC1 (some centres unmarked) [Example 503]

- pEC50 [2]: 8.00 to 9.00
Compound: COC(=O)C(C)N1CCN(C(=O)c2ccc(C[C@@H]3CC[C@H]([C@H](O)c4ccccc4)N3)cc2)CC1 (some centres unmarked) [Example 434]

- pEC50 [1]: 7.00 to 8.00
Compound: CC(C)n1nnnc1CN1CCN(C(=O)c2ccc(C[C@@H]3CC[C@H]([C@H](O)c4ccccc4)N3)cc2)CC1 [Example 400]

- pEC50 [2]: 7.00 to 8.00
Compound: CC(C(=O)N1CCCC2(CCO2)C1)N1CCN(C(=O)c2ccc(C[C@@H]3CC[C@H]([C@H](O)c4ccccc4)N3)cc2)CC1 (some centres unmarked) [Example 495]

- pEC50 [2]: 7.00 to 8.00
Compound: CC(C(=O)N(C)CCC#N)N1CCN(C(=O)c2ccc(C[C@@H]3CC[C@H]([C@H](O)c4ccccc4)N3)cc2)CC1 (some centres unmarked) [Example 521]

- pEC50 [1]: 7.00 to 8.00
Compound: O=C(c1ccc(C[C@@H]2CC[C@H]([C@H](O)c3ccccc3)N2)cc1)N1CCN(c2nccc(-c3ccccc3)n2)CC1 [Example 376]

- pEC50 [1]: 7.00 to 8.00
Compound: O=C(c1ccc(C[C@@H]2CC[C@H]([C@H](O)c3ccccc3)N2)cc1)N1CCN(c2ncccc2O)CC1 [Example 360]

- pEC50 (Table 4, cAMP, CHO cells): 7.00 to 8.00
Compound: O=C(c1ccc(C[C@@H]2CC[C@H]([C@H](O)c3ccccc3)N2)cc1)N1CCC2(CCOC2=O)C1 (some centres unmarked) [Example 13]

- pEC50 (Table 5, cAMP, CHO cells): 7.00 to 8.00
Compound: O=C(c1ccc(C[C@@H]2CC[C@H]([C@H](O)c3ccccc3)N2)cc1)N1CCC(n2cc(-c3ccccc3)[nH]c2=O)CC1 [Example 84]

- pEC50 [1]: 7.00 to 8.00
Compound: O=C(c1ccc(C[C@@H]2CC[C@H]([C@H](O)c3ccccc3)N2)cc1)N1CCN(c2ccc[nH]c2=O)CC1 [Example 387]

- pEC50 [1]: 7.00 to 8.00
Compound: O=C(c1ccc(C[C@@H]2CC[C@H]([C@H](O)c3ccccc3)N2)cc1)N1CCN(C(=O)c2ccccn2)CC1 [Example 348]

- pEC50 [3]: 8.00 to 9.00
Compound: O=C(c1ccc(C[C@@H]2CC[C@H]([C@H](O)c3ccccc3)N2)cc1)N1CCC2(CCCC2=O)CC1 [Example 316]

- pEC50 (Table 4, cAMP, CHO cells): 6.00 to 7.00
Compound: O=C(OCc1ccccc1)N1CC2(C1)CN(C(=O)c1ccc(C[C@@H]3CC[C@H]([C@H](O)c4ccccc4)N3)cc1)C2 [Example 5]

- pEC50 (Table 4, cAMP, CHO cells): 6.00 to 7.00
Compound: CCOC(=O)C1CCCCN1C(=O)c1ccc(C[C@@H]2CC[C@H]([C@H](O)c3ccccc3)N2)cc1 (some centres unmarked) [Example 48]

- pEC50 [5]: 7.00 to 8.00
Compound: N#CC1(c2cnccn2)C2CN(C(=O)c3ccc(C[C@@H]4CC[C@H]([C@H](O)c5ccccc5)N4)cc3)CC21 (some centres unmarked) [Example 235]

- pEC50 [1]: 7.00 to 8.00
Compound: O=C(c1ccc(C[C@@H]2CC[C@H]([C@H](O)c3cccnc3)N2)cc1)N1CCN(c2nccc(-c3ccccc3)n2)CC1 [Example 377]

- pEC50 (Table 4, cAMP, CHO cells): 6.00 to 7.00
Compound: COc1ccc2c(c1)C(=O)CC1(CCCN(C(=O)c3ccc(C[C@@H]4CC[C@H]([C@H](O)c5cccnc5)N4)cc3)C1)O2 (some centres unmarked) [Example 42]
